This note sets out measurements from patent publication US9556231B2, “Beta-hairpin peptidomimetics as CXC4 antagonists” (POLYPHOR AG, priority 2011, dated 2017).

Where two headings read alike, the source gives them in different places. Bridge positions count the residues as written; N and C are the ends. Square brackets hold non-standard residues; d marks the D form. Peptide text beside a SMILES is read from it. Lys(iPr) = CC(C)NCCCC[C@H](N)C(=O)O; Orn(iPr) = CC(C)NCCC[C@H](N)C(=O)O; Dab = NCC[C@H](N)C(=O)O Some results are limits rather than exact numbers.

One data set is described as follows: Plasma protein binding. The class given is in vitro ADME. The conditions noted are these: for fraction unbound: human, plasma; for fraction unbound at 1 h, 10 μM: human plasma. Here is the method: 495 μL aliquots of human plasma (Basler Blutspendedienst) as well as 495 μL aliquots of PBS were placed in individual deepwells of a polypropylene plate (Greiner) and spiked each with 5 μL of 1 mM solutions of peptides in 90% DMSO. After shaking the plate for 2 min at 600 rpm 150 μL aliquots of the plasma/peptide mixtures were transferred in triplicates to the polypropylene filter plate (10 kDa, Millipore) whereas 150 μL aliquots of the PBS/peptide mixtures were transferred either to the individual wells of the filter plate (filtered controls) or directly into the individual wells of the receiving plate (Greiner) (non-filtered controls). The plate sandwich consisting of filter and receiving plate was incubated for 1 h at 37° C. and subsequently centrifuged at 3220 g for 2 h at 15° C. The filtrates in the receiving plate were analysed by LC/MS as follows: Column: Waters, XBridge C18, mobile phases: (A) water+0.1% formic acid and (B) acetonitrile/water, 95/5 (v/v)+0.1% formic acid, gradient: 5%-100% (B) in 1.8 min, electrospray ionization, MRM detection (triple quadrupole). The peak areas were determined and triplicate values are averaged. The binding is expressed in percent of the filtered and non-filtered controls by 100−(100×T1h/Tctr). Finally the average of these values is calculated.

Data set [1] is described as follows: Cytotoxicity, MTT reduction assay, HELA cells. The conditions noted are these: human. The format is cell-based. Here is the method: Namalwa cells (CXCR4 natively expressing non-adherent cells, ATCC CRL-1432) were cultured in RPMI1640 plus 10% FBS, and pen/strept. HELA cells were maintained in RPMI1640 plus 10% FBS, pen/strept and 2 mM L-glutamine. Cos-7 cells were grown in DMEM medium with […] glucose supplemented with 10% FCS, pen/strept and 2 mM L-glutamine. All cell lines were grown at 37° C. at 5% CO2. Cell media, media supplements, PBS-buffer, HEPES, antibiotic/antimycotic, pen/strept, non essential amino acid, L-glutamine, β-mercaptoethanol and sera were purchased from Gibco (Pailsey, UK). All fine chemicals were supplied by Merck (Darmstadt, Germany).
The cytotoxicity of the peptides to HELA cells (Acc57) and COS-7 cells (CRL-1651) was determined using the MTT reduction assay (T. Mossman, J. Immunol. Meth. 1983, 65, 55-63; M. V. Berridge, A. S. Tan, Arch. Biochem. Biophys. 1993, 303, 474-482). Briefly, the method was as follows: 4000 HELA cells/well and 3400 COS-7 cells/well were seeded and grown in 96-well microtiter plates for 24 h at 37° C. at 5% CO2. Thereafter, time zero (Tz) was determined by MTT reduction (see below). The supernatant of the remaining wells was discarded, and fresh medium and compounds in serial dilutions (12.5, 25 and 50 μM, triplicates; 0 μM, blank) were pipetted into the wells. After incubation of the cells for 48 h at 37° C. at 5% CO2 the supernatant was discarded again and 100 μL MTT reagent (0.5 mg/mL in RPMI1640 and DMEM, respectively)/well was added. Following incubation at 37° C. for 2-4 h the media were aspirated and the cells were spiked (100 μL isopropanol/well). The absorbance of the solubilized formazan was measured at 595 nm (OD595peptide). For each concentration averages were calculated from triplicates. The percentage of growth was calculated as follows: (OD595peptide−OD595Tz)/(OD595blank−OD595Tz)×100%. The GI50 (Growth Inhibition) concentrations were calculated for each peptide by using a trend line function for the concentrations (50, 25, 12.5 and 0 μM), the corresponding percentages and the value 50, (=TREND (C50:C0,%50:%0,50).

The nature of data set [2]: Plasma stability, human plasma. The class given is in vitro ADME. The conditions noted are these: 37° C., 1440 min, read-out: human pl. cpd left at 1440 min. The protocol:
The stability of the peptides in human and mouse plasma was determined by applying the following method: 346.5 μL/deep well of freshly thawed human plasma (Basler Blutspende-dienst) and mouse plasma (Harlan Sera-Lab, UK), respectively, were spiked with 3.5 μL/well of compound dissolved in DMSO/H2O (90/10 [v/v], 1 mM, triplicate) and incubated at 37° C. At t=0, 15, 30, 60, 120, 240 and 1440 min aliquots of 50 μL were transferred to filtration plate wells containing 150 μL/well of 2% formic acid in acetonitrile. Following shaking for 2 min the occurred suspensions were filtrated by vacuum. 100 μL of each filtrate were transferred to a propylene microtiter plate and dried under N2. The residual solids were reconstituted by adding 100 μL/well of water/acetonitrile, 95/5 (v/v)+0.2% formic acid and analyzed by LC/MS as follows: Column: Waters, XBridge C18, mobile phases: (A) water+0.1% formic acid and (B) acetonitrile/water, 95/5 (v/v)+0.1% formic acid, gradient: 5%-100% (B) in 1.8 minutes, electrospray ionization, MRM detection (triple quadrupole). The peak areas were determined and triplicate values are averaged. The stability is expressed in percent of the initial value at t=0·(tx/t0×100). By using the TREND function of EXCEL (Microsoft Office 2003) T1/2 were determined.

The mark [3] stands for this setting: ultrafiltration 10 kDa, read-out: Plasma protein binding (converted).
Where [4] appears, read: MTT, 48 h, up to 50 μM, read-out: Cytotoxicity Hela Cells GI50.

For `CC(C)NCCCC[C@@H]1NC(=O)[C@H](CCC(N)=O)NC(=O)[C@H](Cc2ccc(O)cc2)NC(=O)[C@@H]2CSSC[C@H](NC(=O)[C@H](Cc3ccc(O)cc3)NC(=O)[C@H](Cc3c[nH]cn3)NC(=O)[C@H](Cc3ccc(O)cc3)NC(=O)[C@@H]3CCCN3C(=O)[C@H]3CCCN3C1=O)C(=O)N[C@@H](CO)C(=O)N[C@@H](C)C(=O)N1CCC[C@@H]1C(=O)N[C@@H](CCCNC(C)C)C(=O)N[C@@H](CCCNC(=N)N)C(=O)N[C@@H](Cc1ccc(O)cc1)C(=O)N2` [Ex. 1, cyclo(-Tyr^1-His^2-Tyr^3-Cys^4-Ser^5-Ala^6-^DPro^7-Orn(iPr)^8-Arg^9-Tyr^10-Cys^11-Tyr^12-Gln^13-Lys(iPr)^14-^DPro^15-Pro^16-) disulfide bond between Cys^4 and Cys^11] (cyclo(YHYCSA[dP][Orn(iPr)]RYCYQ[Lys(iPr)][dP]P); disulfide 4-11), the fraction unbound in the data set “Plasma protein binding” (read-out: Fraction unbound, fu) was 0.7; in the data set “Plasma protein binding” (setting [3]), 0.7. This molecule showed a GI50 at 48 h in data set [1] above 50 µM. In data set [2], the remaining at 24 h was 77%.
In the case of `CC(C)NCCCC[C@@H]1NC(=O)[C@H](CCC(N)=O)NC(=O)[C@H](Cc2ccc(O)cc2)NC(=O)[C@@H]2CSSC[C@H](NC(=O)[C@H](C)NC(=O)[C@H](Cc3c[nH]cn3)NC(=O)[C@H](Cc3ccc(O)cc3)NC(=O)[C@@H]3CCCN3C(=O)[C@H]3CCCN3C1=O)C(=O)N[C@@H](CO)C(=O)N[C@@H](C)C(=O)N[C@H](Cc1ccc(O)cc1)C(=O)N[C@@H](CCN)C(=O)N[C@@H](CCCNC(=N)N)C(=O)N[C@@H](Cc1ccc(O)cc1)C(=O)N2` [Ex. 3, cyclo(-Tyr^1-His^2-Ala^3-Cys^4-Ser^5-Ala^6-^DTyr^7-Dab^8-Arg^9-Tyr^10-Cys^11-Tyr^12-Gln^13-Lys(iPr)^14-^DPro^15-Pro^16-), disulfide bond between Cys^4 and Cys^11] (cyclo(YHACSA[dY][Dab]RYCYQ[Lys(iPr)][dP]P); disulfide 4-11), the fraction unbound at 1 h, 10 μM in the data set “Plasma protein binding” (ultrafiltration 10 kDa) was 0.52. Besides, in data set [1] (setting [4]), the concentration for 50% growth inhibition (GI50) at 48 h is above 50 µM. Besides, the remaining at 24 h, 10 μM in data set [2] was 100%.
Take `COc1ccc(C[C@H]2NC(=O)[C@H](C)NC(=O)[C@H](CO)NC(=O)[C@@H]3CSSC[C@H](NC(=O)[C@H](Cc4ccc(O)cc4)NC(=O)[C@H](CCCNC(=N)N)NC(=O)[C@H](CCCNC(C)C)NC2=O)C(=O)N[C@@H](Cc2ccc(O)cc2)C(=O)N[C@@H](CCC(N)=O)C(=O)N[C@@H](CCCCNC(C)C)C(=O)N2CCC[C@@H]2C(=O)N2CCC[C@H]2C(=O)N[C@@H](Cc2ccc(O)cc2)C(=O)N[C@@H](Cc2c[nH]cn2)C(=O)N[C@@H](C)C(=O)N3)cc1` [Ex. 4, cyclo(-Tyr^1-His^2-Ala^3-Cys^4-Ser^5-Ala^6-^DTyr(Me)^7-Orn(iPr)^8-Arg^9-Tyr^10-Cys^11-Tyr^12-Gln^13-Lys(iPr)^14-^DPro^15-Pro^16-), disulfide bond between Cys^4 and Cys^11] (cyclo(YHACSA[dY](Me)[Orn(iPr)]RYCYQ[Lys(iPr)][dP]P); disulfide 4-11): the fraction unbound is 0.44 in “Plasma protein binding” (read-out: Fraction unbound, fu) and 0.44 in “Plasma protein binding” (setting [3]). Further, the GI50 at 48 h in data set [1] was above 50 µM. Besides, the remaining at 24 h in data set [2] amounted to 94%.
Molecule `CC(C)NCCCC[C@@H]1NC(=O)[C@H](CCC(N)=O)NC(=O)[C@H](Cc2ccc(O)cc2)NC(=O)[C@@H]2CSSC[C@H](NC(=O)[C@H](Cc3ccc(O)cc3)NC(=O)[C@H](Cc3c[nH]cn3)NC(=O)[C@H](Cc3ccc(O)cc3)NC(=O)[C@@H]3CCCN3C(=O)[C@H]3CCCN3C1=O)C(=O)N[C@@H](CO)C(=O)N[C@@H](C)C(=O)N[C@H](Cc1ccc(O)cc1)C(=O)N[C@@H](CCCNC(C)C)C(=O)N[C@@H](CCCNC(=N)N)C(=O)N[C@@H](Cc1ccc(O)cc1)C(=O)N2` [Ex. 5, cyclo(-Tyr^1-His^2-Tyr^3-Cys^4-Ser^5-Ala^6-^DTyr^7-Orn(iPr)^8-Arg^9-Tyr^10-Cys^11-Tyr^12-Gln^13-Lys(iPr)^14-^DPro^15-Pro^16-), disulfide bond between Cys^4 and Cys^11] (cyclo(YHYCSA[dY][Orn(iPr)]RYCYQ[Lys(iPr)][dP]P); disulfide 4-11) showed a fraction unbound at 1 h, 10 μM in the data set “Plasma protein binding” (ultrafiltration 10 kDa) of 0.46. Besides, in data set [1] (setting [4]), the GI50 at 48 h is above 50 µM. The remaining at 24 h, 10 μM in data set [2] came to 92%.
The like results for `COc1ccc(C[C@@H]2NC(=O)[C@H](Cc3c[nH]cn3)NC(=O)[C@H](Cc3ccc(O)cc3)NC(=O)[C@@H]3CCCN3C(=O)[C@H]3CCCN3C(=O)[C@H](CCCCNC(C)C)NC(=O)[C@H](CCC(N)=O)NC(=O)[C@H](Cc3ccc(O)cc3)NC(=O)[C@@H]3CSSC[C@H](NC2=O)C(=O)N[C@@H](CO)C(=O)N[C@@H](C)C(=O)N[C@H](Cc2ccc(OC)cc2)C(=O)N[C@@H](CCCNC(C)C)C(=O)N[C@@H](CCCNC(=N)N)C(=O)N[C@@H](Cc2ccc(O)cc2)C(=O)N3)cc1` [Ex. 6, cyclo(-Tyr^1-His^2-Tyr(Me)^3-Cys^4-Ser^5-Ala^6-^DTyr(Me)^7-Orn(iPr)^8-Arg^9-Tyr^10-Cys^11-Tyr^12-Gln^13-Lys(iPr)^14-^DPro^15-Pro^16-), disulfide bond between Cys^4 and Cys^11] (cyclo(YHY(Me)CSA[dY](Me)[Orn(iPr)]RYCYQ[Lys(iPr)][dP]P); disulfide 4-11) were, in that order, 0.37, above 50 µM and 83%.
